Here are results for 58 molecules from the Kinase Knowledgebase extract (Sharma et al. 2016).

In general, IC50 refers to the concentration that inhibits the measured activity by half. Higher therefore signals lower potency.

The assay addresses PIK3CD (Human) (UniProt O00329). Nature of the assay: Cell-Free Assay.

PIK3CD (Human), sequence (O00329 whole entry, looked up): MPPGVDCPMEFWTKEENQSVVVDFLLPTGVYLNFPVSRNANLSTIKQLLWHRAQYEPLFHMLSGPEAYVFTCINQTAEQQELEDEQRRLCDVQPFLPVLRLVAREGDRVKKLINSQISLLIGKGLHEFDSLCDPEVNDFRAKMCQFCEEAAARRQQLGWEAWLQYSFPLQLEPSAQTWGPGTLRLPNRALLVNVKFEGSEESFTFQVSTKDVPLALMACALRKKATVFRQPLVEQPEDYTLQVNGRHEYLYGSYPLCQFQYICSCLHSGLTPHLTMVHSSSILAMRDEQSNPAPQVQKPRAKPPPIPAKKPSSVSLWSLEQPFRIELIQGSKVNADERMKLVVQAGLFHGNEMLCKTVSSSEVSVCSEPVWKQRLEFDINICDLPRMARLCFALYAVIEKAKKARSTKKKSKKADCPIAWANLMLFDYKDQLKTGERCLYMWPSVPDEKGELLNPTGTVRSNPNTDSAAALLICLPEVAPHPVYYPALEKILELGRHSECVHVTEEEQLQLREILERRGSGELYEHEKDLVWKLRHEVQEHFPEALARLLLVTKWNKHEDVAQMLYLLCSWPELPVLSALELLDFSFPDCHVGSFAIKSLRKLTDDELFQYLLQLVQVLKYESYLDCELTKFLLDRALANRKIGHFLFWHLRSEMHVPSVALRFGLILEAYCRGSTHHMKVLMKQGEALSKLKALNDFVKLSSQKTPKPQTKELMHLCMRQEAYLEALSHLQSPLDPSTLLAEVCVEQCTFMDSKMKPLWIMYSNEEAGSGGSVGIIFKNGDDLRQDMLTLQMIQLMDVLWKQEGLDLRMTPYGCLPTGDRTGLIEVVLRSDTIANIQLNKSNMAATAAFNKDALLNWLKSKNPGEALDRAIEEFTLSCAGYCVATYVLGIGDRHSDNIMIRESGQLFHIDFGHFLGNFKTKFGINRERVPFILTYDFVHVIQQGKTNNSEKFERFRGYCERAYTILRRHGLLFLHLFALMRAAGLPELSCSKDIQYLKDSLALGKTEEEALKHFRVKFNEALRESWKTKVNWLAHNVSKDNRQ

Turning to `Cc1cc(C(=O)NCc2ccc(C(=O)NCCO)cc2)cc(-c2nc([C@H](C)Nc3ncnc(N)c3C#N)nn3ccc(C)c23)c1`, the IC50 amounted to 2.6 nM.
`COc1ccc(S(=O)(=O)Nc2cc(-c3nc([C@H](C)Nc4ncnc(N)c4C#N)nn4ccc(C)c34)cnc2O)cc1` had an IC50 of 10 nM.
In the case of `Cc1ccn2nc(Cn3nc(-c4cc(O)cc(F)c4)c4c(N)ncnc43)nc(OCCN3CCC(C(=O)O)CC3)c12`, the concentration for half-maximal inhibition (IC50) was found to be 0.6 nM.
Molecule `C[C@H](Nc1ncnc(N)c1C#N)c1nc(OCC2CCOCC2)c2c(Br)ccn2n1` displayed an IC50 of 6 nM.
Regarding `Cc1cc(C(=O)N(C)Cc2cccc(O)c2)cc(-c2nc([C@H](C)Nc3ncnc(N)c3C#N)nn3ccc(C)c23)c1`, the IC50 stood at 1.7 nM.
With `COc1ncc(-c2c[nH]c3ncnc(N[C@@H](C)c4nc(N5C[C@@H](C)O[C@@H](C)C5)c5c(C)ccn5n4)c23)cc1NS(C)(=O)=O` the figure was 0.5 nM; with `Cc1ccn2nc([C@H](C)Nc3ncnc4[nH]cc(C#N)c34)nc(N(CCN(C)C)c3cccc(O)c3)c12`, 1 nM.
As to `CN[C@H]1CCCC[C@@H]1N(C)c1nc([C@H](C)Nc2ncnc(N)c2C#N)nn2ccc(C)c12`, the concentration for half-maximal inhibition (IC50) was 10.6 nM.
For `CC(=O)N1[C@H](C)CN(c2nc([C@H](C)Nc3ncnc(N)c3C#N)nn3ccc(C)c23)C[C@@H]1C`, the half-inhibitory concentration (IC50) is 45.4 nM.
In turn, `Cc1ccn2nc([C@H](C)Nc3ncnc(N)c3-c3cc(O)cc(F)c3)nc(OCC3CCOCC3)c12` gave an IC50 of 62 nM.
With `Cc1ccn2nc([C@H](C)Nc3ncnc(N)c3C#N)nc(-c3cc(O)cc(C(=O)NC4CC4)c3)c12`, the concentration for half-maximal inhibition (IC50) stood at 2 nM.
In turn, `CCOC(=O)C1CCN(CCOc2nc(Cn3nc(-c4cc(O)cc(F)c4)c4c(N)ncnc43)nn3ccc(C)c23)CC1` showed an IC50 of 1.2 nM.
With `Cc1cc(C(=O)NCc2ccc(S(N)(=O)=O)cc2)cc(-c2nc([C@H](C)Nc3ncnc(N)c3C#N)nn3cccc23)c1` the figure was 76.7 nM; with `Cc1ccn2nc([C@H](C)Nc3ncnc(N)c3C#N)nc(Oc3cccc(NCCN(C)C)c3)c12`, 10 nM.
In turn, `Cc1ccn2nc([C@H](C)Nc3ncnc(N)c3C#N)nc(-c3ccnc(N4CCC(N(C)C)CC4)c3)c12` showed a half-inhibitory concentration (IC50) of 5.9 nM.
In turn, `Cc1cc(-c2nc([C@H](C)Nc3ncnc(N)c3C#N)nn3ccc(C)c23)cc(C)c1O` came in with a half-inhibitory concentration (IC50) of 0.3 nM.
For the molecule `Cc1ccn2nc(Cn3nc(-c4cc(O)cc(F)c4)c4c(N)ncnc43)nc(OCCN3CCOCC3)c12`, the IC50 turned out to be 0.8 nM.
The molecule `Cc1ccn2nc([C@H](C)Nc3ncnc(N)c3C#N)nc(OC3CCN(C(C)C)CC3)c12` came in with an IC50 of 6 nM.
The molecule `COc1ncc(-c2nc([C@H](C)Nc3ncnc(N)c3C#N)nn3ccc(C)c23)cc1NS(C)(=O)=O` returned an IC50 of 7 nM.
`Cc1ccn2nc(Cn3nc(-c4cc(O)cc(F)c4)c4c(N)ncnc43)nc(N3C[C@@H]4CC[C@H]3CN4S(C)(=O)=O)c12`: the concentration for half-maximal inhibition (IC50) came out at 5.9 nM.
Take `Cc1ccn2nc(Cn3nc(-c4cc(O)cc(F)c4)c4c(N)ncnc43)nc(OCC3CCOCC3)c12`: the IC50 was 2 nM.
Regarding `Cc1ccn2nc([C@H](C)Nc3ncnc(N)c3C#N)nc(N(CCN(C)C)Cc3ccc(N4CCC(N(C)C)CC4)cc3)c12`, the concentration for half-maximal inhibition (IC50) came to 6.4 nM.
With `Cc1ccn2nc(Cn3nc(-c4cc(O)cc(F)c4)c4c(N)ncnc43)nc(OCCN3CCCC3=O)c12`, the half-inhibitory concentration (IC50) amounted to 2.5 nM.
Molecule `Cc1ccn2nc([C@H](C)Nc3ncnc(N)c3C#N)nc(Oc3cccc(CO)c3)c12` yielded a half-maximal inhibitory concentration (IC50) of 7 nM.
As for `Cc1ccn2nc([C@H](C)Nc3ncnc(N)c3C#N)nc(N(CCN(C)C)Cc3ccc(N4CCN(C)CC4)cc3)c12`, the IC50 was 2.9 nM.
For the molecule `Cc1cc(-c2nc([C@H](C)Nc3ncnc(N)c3C#N)nn3cccc23)cc(C)c1C(=O)NCCO`, the IC50 was 11.4 nM.
To `Cc1cc(N(C)C)cc(C2CCN(c3cc(-c4nc([C@H](C)Nc5ncnc(N)c5C#N)nn5ccc(C)c45)ccn3)CC2)n1` belongs 2.8 nM; to `CC(C)Oc1nc([C@H](C)Nc2ncnc(N)c2C#N)nn2cccc12`, 62 nM.
With `Cc1ccn2nc(Cn3nc(-c4cc(O)cc(F)c4)c4c(N)ncnc43)nc(N3CCC(C(N)=O)CC3)c12` the figure was 2.8 nM; with `Cc1ccn2nc([C@H](C)Nc3ncnc4[nH]cc(-c5cc(O)cc(NS(=O)(=O)CCN(C)C)c5)c34)nc(N3C[C@@H](C)N[C@@H](C)C3)c12`, 6.2 nM; with `Cc1ccn2nc(Cn3nc(-c4cc(O)cc(F)c4)c4c(N)ncnc43)nc(N3C[C@@H]4C[C@H]3CN4)c12`, 1 nM.
To `Cc1ccn2nc([C@H](C)Nc3ncnc(N)c3C#N)nc(N3C[C@@H](C)N[C@@H](C)C3)c12` belongs 0.5 nM.
Turning to `Cc1ccn2nc([C@H](Cc3cccc(O)c3)Nc3ncnc(N)c3C#N)nc(N3C[C@@H](C)N[C@@H](C)C3)c12`, the IC50 is 8.8 nM.
Turning to `COc1cccc(N(C)c2nc([C@H](C)Nc3ncnc(N)c3C#N)nn3ccc(C)c23)c1`, the IC50 is 19 nM.
With `Cc1ccn2nc(Cn3nc(-c4cc(O)cc(F)c4)c4c(N)ncnc43)nc(N(CCN(C)C)c3cccc(O)c3)c12` the figure was 0.1 nM; with `Cc1cc(C(=O)NCCCCCN(C)CCO)cc(-c2nc([C@H](C)Nc3ncnc(N)c3C#N)nn3ccc(C)c23)c1`, 3.1 nM.
Molecule `Cc1ccn2nc([C@H](C)Nc3ncnc(N)c3C#N)nc(N3CCC(CN4CCCC4)CC3)c12` displayed an IC50 of 6.2 nM.
In the case of `Cc1ccn2nc([C@H](C)Nc3ncnc(N)c3C#N)nc(-c3cc(O)cc(C(=O)NCCN(C)C)c3)c12`, the IC50 is 3.6 nM.
`Cc1ccn2nc([C@H](C)Nc3ncnc(N)c3C#N)nc(-c3ccc(O)c(C(C)(C)O)c3)c12`: the IC50 came out at 8 nM.
On to `Cc1ccn2nc(Cn3nc(-c4cc(O)cc(F)c4)c4c(N)ncnc43)nc(N3CCS(=O)(=O)CC3)c12`, for which the IC50 was determined as 2.5 nM.
In turn, `Cc1ccn2nc([C@H](C)Nc3ncnc4[nH]cc(-c5cnn(C)c5)c34)nc(N3C[C@@H](C)N[C@@H](C)C3)c12` showed an IC50 of 2 nM.
To `Cc1ccn2nc(Cn3nc(-c4cc(O)cc(F)c4)c4c(N)ncnc43)nc(NCCN3CCCC3)c12` belongs 1.1 nM.
Consider `Cc1ccn2nc(Cn3nc(-c4cc(O)cc(F)c4)c4c(N)ncnc43)nc(N3CCSCC3)c12`, for which the IC50 was 2.7 nM.
In the case of `Cc1ccn2nc(Cn3nc(-c4cc(O)cc(F)c4)c4c(N)ncnc43)nc(OC3CCN(C(C)C)CC3)c12`, the concentration for half-maximal inhibition (IC50) was found to be 1 nM.
The molecule `Cc1ccn2nc(Cn3nc(-c4cc(O)cc(F)c4)c4c(N)ncnc43)nc(N3CCCNCC3)c12` returned an IC50 of 6.1 nM.
For the molecule `Cc1ccn2nc([C@H](C)Nc3ncnc(N)c3C#N)nc(-c3cc(O)cc(C(F)(F)F)c3)c12`, the half-inhibitory concentration (IC50) came to 1 nM.
The molecule `Cc1ccn2nc(Cn3nc(-c4cc(O)cc(F)c4)c4c(N)ncnc43)nc(N3C[C@@H](C)O[C@@H](C)C3)c12` registered a half-maximal inhibitory concentration (IC50) of 1 nM.
`Cc1ccn2nc([C@H](C)Nc3ncnc(N)c3C#N)nc(-c3cc(O)cc(C#N)c3)c12` had an IC50 of 1.3 nM.
Turning to `C[C@H](Nc1ncnc(N)c1C#N)c1nc(OCC2CCNCC2)c2cccn2n1`, the IC50 was 27 nM.
Molecule `Cc1cc(C(=O)O)cc(-c2nc([C@H](C)Nc3ncnc(N)c3C#N)nn3ccc(C)c23)c1` registered a half-inhibitory concentration (IC50) of 0.4 nM.
Regarding `Cc1ccn2nc(Cn3nc(-c4cncc(O)c4)c4c(N)ncnc43)nc(N3C[C@@H](C)N[C@@H](C)C3)c12`, the 50% inhibitory concentration (IC50) stood at 0.9 nM.
Molecule `Cc1ccn2nc([C@H](C)Nc3ncnc(N)c3C#N)nc(N(CCN3CCOCC3)c3cccc(O)c3)c12` returned an IC50 of 13 nM.
Molecule `CNCCNc1nc([C@H](C)Nc2ncnc(N)c2C#N)nn2ccc(C)c12` had an IC50 of 6.1 nM.
In turn, `Cc1ccn2nc([C@H](C)Nc3ncnc(N)c3C#N)nc(CCN3CCOCC3)c12` returned a 50% inhibitory concentration (IC50) of 1.9 nM.
The molecule `Cc1ccn2nc([C@H](C)Nc3ncnc(N)c3C#N)nc(N[C@@H](Cc3ccc(O)cc3)C(N)=O)c12` had a 50% inhibitory concentration (IC50) of 14.6 nM.
As for `Cc1ccn2nc(Cn3nc(-c4cc(O)cc(NS(C)(=O)=O)c4)c4c(N)ncnc43)nc(N3C[C@@H](C)N[C@@H](C)C3)c12`, the IC50 was found to be 0.5 nM.
For `Cc1cc(-c2nc([C@H](C)Nc3ncnc(N)c3C#N)nn3ccc(C)c23)n(C)n1`, the IC50 is 9.9 nM.
`C[C@H](Nc1ncnc(N)c1C#N)c1nc(OCC2CCOCC2)c2c(C#N)ccn2n1`: the IC50 worked out at 31 nM.
